Measurements: patent publication US20250109127A1, “METHODS OF USE OF PHENOXYPROPYLAMINE COMPOUNDS TO TREAT DEPRESSION” (Minerva Neurosciences, Inc., priority 2013, published 2025)
Where “and” joins values, the source holds several entries; their conditions need not be identical. Equal values may be shown once. Where a name gives a salt, the structure may show the parent alone.

System: 5-HT release in the rat prefrontal cortex
Test: Microdialysis: 5-HT release in prefrontal cortex after I.P. administration
Format: in vivo
Conditions: for 5-HT release, individual animals / 5-HT release, MEAN: 0.3 mg/kg I.P.; for 5-HT release, individual animals: one column per animal R#11,12,18,23,29,30,17,24, hydrochloride; for 5-HT release, MEAN / 5-HT release (% of basal levels) measured in dialysates, MEAN: n = 8; for serotonin levels, increase (not statistically significant): SON-117 0.1 mg/kg IP; for 5-HT release (% of basal levels) measured in dialysates, MEAN: SON-117 3 mg/kg IP
Protocol: The aim of the study was to evaluate, using microdialysis, the effects of an intraperitoneal (I.P.) administration in rats of three different doses of SON-117 on dopamine and its metabolites, serotonin and its metabolite (5-HIAA), and norepinephrine levels in prefrontal cortex.
Thirty-two adult male Wistar rats were used for the whole study (4 groups of eight animals planned for the study, Table 1).
Surgery was performed on rats weighing about 300 g at the beginning of the experiments. Rats were anaesthetized with Ketamine (50 mg/kg) & Xylazine (15 mg/kg) by intramuscular administration. The animals were placed in a stereotaxic apparatus in the flat-skull position at a constant setting of −3.3 mm between ear bars and the incisor bar. The animals were treated with a local anesthesic (xylocaine 1%, Astra Zeneca) and an analgesic (Temgesic, from Schering Plough, 0.05 mg/kg, s.c.). A rostrocaudal midline incision was made with a lancet to expose the dorsal skull surface. The “stereotaxic zero” was defined by the Bregma in accordance with Paxinos and Watson's atlas (1986). A hole was drilled in the skull with a drill and the meninges were pierced with a sterile needle to implant a CMA12 guide cannula which later received the dialysis probe.
Coordinates used for implanting guide cannula in prefrontal cortex from Bregma were anteroposterior 3.7 mm, mediolateral 0.8 mm, and dorsoventral −2 mm (top of the probe was at −5 mm). The guide cannula was fixed to the skull with two stainless steel screws (1.88 mm outside diameter) anchored. An application of dental cement was added. A plastic collar allowed each animal to be tethered to a Swivel assembly of the CMA 120 awake animal system. Following surgery, rats were kept in individual cages and allowed to recover for a minimum of 3-5 days before the experimentation. The rats were handled and put in plastic bowl for 10 min at least every day to habituate the animals to their new environment for the dialysis. An I.P. administration with saline was also performed every day.
Dialysis probes (CMA12/3 mm, membrane, 20 kD cut-off, Carnegie Medicine, Stockholm, Sweden), were carefully washed before inserting into the guide cannula. The wash was performed with the artificial cerebrospinal fluid (aCSF) medium (NaCl 147 mM, KCl 2.7 mM, CaCl2 1.2 mM, MgCl2 0.85 mM) at room temperature. The dialysis system was then equilibrated at 20° C. at a perfusion rate of 1 μl/min with a Carnegie pump (CMA100). All catheters (FEP tubing, internal volume of 1.2 μl/10 cm, and tubing adaptors) used for microdialysis were treated in the same conditions.
The probes duly prepared were inserted into the guide cannula and the CMA120 Swivel assembly secured to the animal using a plastic collar. Flow through the dialysis probe with aCSF was maintained at a rate of 1 μl/min during the whole experimentation. The first four fractions (corresponding to 2 hours) were discarded to avoid the effects of parenchymal disturbance and to ensure that an approximate steady-state level was reached. Fractions were then collected over a period of 8.5 h during which time the animals remained quiet. The dialysates were automatically collected with an autosampler (microfraction collector CMA 140, Carnegie Medicin) and stored at −80° C. until analysis. […] Perfusion was then maintained for 7 hours with aCSF. The dialysates (30 μl) were collected into 300 μl vials, transferred into dry ice and then kept frozen (−80° C.) until analysis. Frozen samples were shipped to a partner for analysis. At the end of the microdialysis study, a PBS with colored ink was perfused through the probe in order to visualize the dialyzed area.
Catecholamine assay: Concentrations of dopamine, DOPAC, HVA, 5-HIAA, 5-HT, and norepinephrin were determined for each sample by HPLC coupled with electrochemical detection. […]

Which “5-HT release, individual animals” value (T3 h 30-T4 h) does the source give for `Cc1nnc(-c2cc3c(OC[C@@H](O)CN4CCC(c5ccc(Cl)c(Cl)c5)CC4)cccc3o2)o1` [SON-117, (S)-1-(4-(3,4-dichlorophenyl)piperidino)-3-(2-(5-methyl-1,3,4-oxadiazol-2-yl)benzo(b)furan-4-yloxy)-2-propanol hydrochloride] here?
The value was 200.54 % of respective basal and 84.61 % of respective basal and 62.15 % of respective basal and 60.73 % of respective basal and 115.12 % of respective basal and 46.42 % of respective basal and 361.81 % of respective basal.

And the “5-HT release, MEAN” value (T3 h-T3 h 30)?
Its value is 112.03 % of respective basal.

And the “5-HT release, individual animals” value (T3 h-T3 h 30)?
Its value is 118.62 % of respective basal and 100.39 % of respective basal and 94.04 % of respective basal and 122.16 % of respective basal and 126.07 % of respective basal and 27.45 % of respective basal and 195.48 % of respective basal.

What about the “5-HT release, MEAN” value (T4 h 30-T5 h) of the same molecule?
Its value is 105.19 % of respective basal.

What about the “5-HT release, individual animals” value (T4 h 30-T5 h) of the same molecule?
The value was 144.93 % of respective basal and 86.55 % of respective basal and 70.67 % of respective basal and 69.54 % of respective basal and 82.71 % of respective basal and 313.44 % of respective basal and 18.96 % of respective basal and 54.73 % of respective basal.

And the “5-HT release, MEAN” value (T4 h-T4 h 30)?
Its value is 80.14 % of respective basal.

And the “5-HT release, individual animals” value (T4 h-T4 h 30)?
Its value is 87.68 % of respective basal and 67.29 % of respective basal and 102.65 % of respective basal and 67.53 % of respective basal and 83.72 % of respective basal and 130.39 % of respective basal and 23.64 % of respective basal and 78.23 % of respective basal.

And the “5-HT release, MEAN” value (T5 h 30-T6 h)?
The value was 106.06 % of respective basal.

And the “5-HT release, individual animals” value (T5 h 30-T6 h)?
The value was 149.11 % of respective basal and 44.15 % of respective basal and 83.73 % of respective basal and 57.89 % of respective basal and 95.31 % of respective basal and 328.43 % of respective basal and 13.82 % of respective basal and 76.03 % of respective basal.

And the “5-HT release, MEAN” value (T5 h-T5 h 30)?
The value was 100.56 % of respective basal.

And the “5-HT release, individual animals” value (T5 h-T5 h 30)?
Its value is 81.27 % of respective basal and 37.01 % of respective basal and 187.99 % of respective basal and 64.78 % of respective basal and 81.96 % of respective basal and 177.83 % of respective basal and 7.58 % of respective basal and 166.02 % of respective basal.

And the “5-HT release, MEAN” value (T6 h 30-T7 h)?
The value was 103.94 % of respective basal.

What about the “5-HT release, individual animals” value (T6 h 30-T7 h) of the same molecule?
Its value is 181.36 % of respective basal and 59.67 % of respective basal and 70.80 % of respective basal and 52.79 % of respective basal and 109.41 % of respective basal and 187.49 % of respective basal.

What about the “5-HT release, MEAN” value (T6 h-T6 h 30) of the same molecule?
Its value is 95.56 % of respective basal.

What about the “5-HT release, individual animals” value (T6 h-T6 h 30) of the same molecule?
Its value is 73.74 % of respective basal and 57.84 % of respective basal and 81.54 % of respective basal and 59.72 % of respective basal and 94.43 % of respective basal and 108.00 % of respective basal and 20.86 % of respective basal and 268.32 % of respective basal.

What about the “5-HT release, MEAN” value (T-30 min-T0 (before administration)) of the same molecule?
Its value is 94.43 % of respective basal.

And the “5-HT release, MEAN” value (T-1 h 30-T-1 h (before administration))?
Its value is 100.12 % of respective basal.

And the “5-HT release, MEAN” value (T-1 h-T-30 min (before administration))?
The value was 104.14 % of respective basal.

What about the “serotonin levels, increase (not statistically significant)” value (at 2.5 h) of the same molecule?
Its value is 368%.

And the “serotonin levels, increase (not statistically significant)” value (from 4.5 h to 7 h)?
Its value is 350%.

And the “5-HT release, maximum increase observed” value (SON-117 0.1 mg/kg, at 2.5 h)?
Its value is 369%.

What about the “levels of 5-HT compared to the citalopram treated group (significant)” value (SON-117 0.1 mg/kg, at 2.5 h, 4.5 and 5.5 h) of the same molecule?
The value was “higher”.

What about the “5-HT dialysate levels vs mean pre-administration value” (SON-117 0.3 mg/kg IP) of the same molecule?
The value was “no statistically significant differences”.

And the “levels of 5-HT compared to the citalopram treated group (significant)” value (SON-117 0.3 mg/kg, at 1 h)?
The value was “slightly lower”.

What about the “5-HT release (% of basal levels) measured in dialysates, MEAN” value (T0-T30 min) of the same molecule?
Its value is 100.79 % of basal levels.

What about the “5-HT release (% of basal levels) measured in dialysates, MEAN” value (T30-T1 h) of the same molecule?
The value was 122.25 % of basal levels.
